Experiments:
IGFR = IGFR (Homo sapiens, UniProt P08069); assay: Kinase inhibition profile, non-related TK; type: biochemical; settings: ATP concentration of 1 nM
INSR = INSR (Homo sapiens, UniProt P06213); assay: Kinase inhibition profile, non-related TK; type: biochemical; settings: ATP concentration of 1 nM
LYN = LYN (Homo sapiens, UniProt P07948); assay: Kinase inhibition profile, non-related TK; type: biochemical; settings: ATP concentration of 1 nM
FYN = FYN (Homo sapiens, UniProt P06241); assay: Kinase inhibition profile, non-related TK; type: biochemical; settings: ATP concentration of 1 nM
Chain of FYN (P06241 whole entry): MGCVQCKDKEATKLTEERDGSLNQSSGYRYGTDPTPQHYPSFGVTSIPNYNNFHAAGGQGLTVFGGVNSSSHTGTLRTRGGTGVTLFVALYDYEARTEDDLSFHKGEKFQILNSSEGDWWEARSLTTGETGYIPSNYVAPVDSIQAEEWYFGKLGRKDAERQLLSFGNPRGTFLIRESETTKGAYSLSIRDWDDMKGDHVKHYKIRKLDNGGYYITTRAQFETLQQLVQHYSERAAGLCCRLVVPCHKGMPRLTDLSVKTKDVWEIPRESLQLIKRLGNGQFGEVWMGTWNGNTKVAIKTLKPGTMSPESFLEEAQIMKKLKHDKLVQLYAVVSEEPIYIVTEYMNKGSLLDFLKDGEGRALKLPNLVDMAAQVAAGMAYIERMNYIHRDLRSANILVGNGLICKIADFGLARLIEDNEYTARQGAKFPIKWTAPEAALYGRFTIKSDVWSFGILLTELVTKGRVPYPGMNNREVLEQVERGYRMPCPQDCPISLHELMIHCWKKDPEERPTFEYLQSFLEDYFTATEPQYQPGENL

[1] = test system: laser-induced choroidal neovascularization (CNV); assay: Prevention of laser-induced CNV, intravitreal injection, mouse; type: in vivo, C57BL/6J mice; settings: for inhibition of CNV as compared to vehicle-injected eyes: 5 ul intravitreal immediately after laser, 14 days post-laser
Experimental: (§1) Methods. CNV was generated by laser-induced rupture of Bruch's membrane. Briefly, 4 to 5 week old male C57BL/6J mice were anesthetized using intraperitoneal administration of ketamine hydrochloride (100 mg/kg) and xylazine (5 mg/kg) and the pupils of both eyes dilated with topical ocular instillation of 1% tropicamide and 2.5% Mydfin®. One drop of topical cellulose (Gonioscopic®) was used to lubricate the cornea. A hand-held cover slip was applied to the cornea and used as a contact lens to aid visualization of the fundus. Three to four retinal burns were placed in randomly assigned eye (right or left eye for each mouse) using the Alcon 532 nm EyeLite laser with a slit 5 lamp delivery system. The laser burns were used to generate a rupture in Bruch's membrane, which was indicated ophthalmoscopically by the formation of a bubble under the retina. Only mice with laser burns that produced three bubbles per eye were included in the study. Bums were typically placed at the 3, 6, 9 or 12 o'clock positions in the posterior pole of the retina, avoiding the branch retinal arteries and veins.
(§2) Each mouse was randomly assigned into one of the following treatment groups: noninjected controls, sham-injected controls, vehicle-injected mice, or one of three RTKi-injected groups. Control mice received laser photocoagulation in both eyes, where one eye received a sham injection, i.e. a pars plana needle puncture. […] The intravitreal injection was performed immediately after laser photocoagulation. At 14 days post-laser, all mice were anesthetized and systemically perfused with fluorescein-labeled dextran. Eyes were then harvested and prepared as choroidal flat mounts with the RPE side oriented towards the observer. All choroidal flat mounts were examined using a fluorescent microscope. Digital images of the CNV were captured, where the CNV was identified as areas of hyperfluorescence within the pigmented background. Computerized image analysis was used to delineate and measure the two dimensional area of the hyperfluorescent CNV per lesion (um^2) for the outcome measurement. The median CNV area/burn per mouse per treatment group or the mean CNV area/burn per treatment group was used for statistical analysis depending on the normality of data distribution; P≦0.05 was considered significant.

[2] = test system: existing laser-induced choroidal neovascularization (CNV); assay: Regression of existing laser-induced CNV, intravitreal injection, mouse; type: in vivo; settings: for Mean CNV / Median CNV: intravitreal at day 7, day 14; for inhibition of CNV as compared to vehicle-injected eyes at day 14 post-laser: intravitreal at day 7; for reduction of median CNV area compared to CNV present at 7 days post-laser: intravitreal at day 7, read at day 14
Experimental: as §1, §2
METHODS: CNV was generated by laser-induced rupture of Bruch's membrane as described above in Example 3. Each mouse was randomly assigned to one of the following treatment groups: noninjected controls, sham-injected controls, vehicle-injected mice, AL-39324 injected groups. Control mice received laser photocoagulation in both eyes, where one eye received a sham injection, i.e. a pars plana needle puncture. […] All mice received laser photocagulation at day 0. For mice randomized to an injection group, a single intravitreal injection was performed at 7 days post-laser. Also at 7 days post-laser, several mice with no-injection were euthanized and their eyes used for controls. At 14 days post-laser, all remaining mice were euthanized and systemically perfused with fluorescein-labeled dextran. Eyes were then harvested and prepared as choroidal flat mounts with the RPE side oriented towards the observer. Choroidal flat mounts were analyzed as described above in Example 3.

[3] = test system: existing laser-induced choroidal neovascularization (CNV); assay: Laser-induced CNV, oral gavage, regression paradigm, mouse; type: in vivo; settings: for Mean CNV / Median CNV: regression
Experimental: as §1, §2
METHODS: CNV was generated by laser-induced rupture of Bruch's membrane as described in Example 3 above. […] The mice received an oral gavage of 0, 1.5, 5, or 10 mg/kg twice per day and for 14 days post-laser. […] Oral gavage dosing was continued twice per day for 14 days post-laser. Several mice were Is euthanized at day 7 post-laser and used for controls. At 14 days post-laser, all mice were anesthetized and systemically perfused with fluorescein-labeled dextran. Eyes were then harvested and prepared as choroidal flat mounts as described in Example 3 above.

Chain of INSR (P06213 28-1382): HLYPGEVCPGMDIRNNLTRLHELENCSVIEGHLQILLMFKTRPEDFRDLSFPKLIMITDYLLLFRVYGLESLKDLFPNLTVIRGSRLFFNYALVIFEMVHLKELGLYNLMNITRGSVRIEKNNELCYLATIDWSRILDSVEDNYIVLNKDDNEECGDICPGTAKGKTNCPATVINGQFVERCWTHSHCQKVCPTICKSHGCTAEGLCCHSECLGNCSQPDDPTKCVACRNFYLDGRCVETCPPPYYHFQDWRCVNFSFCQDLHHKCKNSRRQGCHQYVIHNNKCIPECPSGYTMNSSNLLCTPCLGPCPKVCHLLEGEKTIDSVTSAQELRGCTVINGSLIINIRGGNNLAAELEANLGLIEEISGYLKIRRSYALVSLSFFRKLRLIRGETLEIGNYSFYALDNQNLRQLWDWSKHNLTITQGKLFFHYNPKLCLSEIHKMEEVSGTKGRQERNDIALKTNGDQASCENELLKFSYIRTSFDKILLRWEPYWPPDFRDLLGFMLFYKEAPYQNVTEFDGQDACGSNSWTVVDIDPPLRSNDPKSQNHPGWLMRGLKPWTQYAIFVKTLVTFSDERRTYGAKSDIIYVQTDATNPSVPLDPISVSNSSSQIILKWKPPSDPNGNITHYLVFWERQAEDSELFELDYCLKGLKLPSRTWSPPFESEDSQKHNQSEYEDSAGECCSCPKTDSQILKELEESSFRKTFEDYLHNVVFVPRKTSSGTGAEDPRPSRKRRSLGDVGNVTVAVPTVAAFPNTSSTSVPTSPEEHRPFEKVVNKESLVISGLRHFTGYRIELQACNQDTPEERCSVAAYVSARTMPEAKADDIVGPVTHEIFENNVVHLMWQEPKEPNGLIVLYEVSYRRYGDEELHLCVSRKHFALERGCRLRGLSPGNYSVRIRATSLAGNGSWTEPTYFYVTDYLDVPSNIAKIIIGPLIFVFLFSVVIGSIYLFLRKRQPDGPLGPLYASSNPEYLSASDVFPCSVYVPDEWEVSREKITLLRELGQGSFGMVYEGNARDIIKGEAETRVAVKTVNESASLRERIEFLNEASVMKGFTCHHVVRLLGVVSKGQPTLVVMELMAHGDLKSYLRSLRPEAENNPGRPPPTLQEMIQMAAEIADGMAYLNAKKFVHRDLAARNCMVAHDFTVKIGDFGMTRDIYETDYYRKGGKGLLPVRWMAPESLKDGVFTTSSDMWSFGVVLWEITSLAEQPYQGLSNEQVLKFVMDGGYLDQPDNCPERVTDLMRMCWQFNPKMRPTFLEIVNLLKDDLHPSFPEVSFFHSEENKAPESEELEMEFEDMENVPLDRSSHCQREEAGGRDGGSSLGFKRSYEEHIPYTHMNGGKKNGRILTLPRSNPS
Chain of LYN (P07948 whole entry): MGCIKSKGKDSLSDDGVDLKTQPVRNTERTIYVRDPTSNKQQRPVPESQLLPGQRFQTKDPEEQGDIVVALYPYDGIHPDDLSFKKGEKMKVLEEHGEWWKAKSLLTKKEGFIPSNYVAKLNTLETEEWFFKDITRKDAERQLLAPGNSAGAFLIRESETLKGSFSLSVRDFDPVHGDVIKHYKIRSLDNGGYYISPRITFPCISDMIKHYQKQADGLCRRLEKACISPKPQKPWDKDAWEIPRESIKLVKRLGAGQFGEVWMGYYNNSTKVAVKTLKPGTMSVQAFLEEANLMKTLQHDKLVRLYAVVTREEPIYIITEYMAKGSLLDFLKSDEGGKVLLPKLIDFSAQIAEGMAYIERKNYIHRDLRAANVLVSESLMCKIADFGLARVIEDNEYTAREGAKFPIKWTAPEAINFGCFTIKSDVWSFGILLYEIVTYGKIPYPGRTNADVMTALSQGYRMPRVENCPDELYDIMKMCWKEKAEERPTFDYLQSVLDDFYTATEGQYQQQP
Chain of IGFR (P08069 31-1367): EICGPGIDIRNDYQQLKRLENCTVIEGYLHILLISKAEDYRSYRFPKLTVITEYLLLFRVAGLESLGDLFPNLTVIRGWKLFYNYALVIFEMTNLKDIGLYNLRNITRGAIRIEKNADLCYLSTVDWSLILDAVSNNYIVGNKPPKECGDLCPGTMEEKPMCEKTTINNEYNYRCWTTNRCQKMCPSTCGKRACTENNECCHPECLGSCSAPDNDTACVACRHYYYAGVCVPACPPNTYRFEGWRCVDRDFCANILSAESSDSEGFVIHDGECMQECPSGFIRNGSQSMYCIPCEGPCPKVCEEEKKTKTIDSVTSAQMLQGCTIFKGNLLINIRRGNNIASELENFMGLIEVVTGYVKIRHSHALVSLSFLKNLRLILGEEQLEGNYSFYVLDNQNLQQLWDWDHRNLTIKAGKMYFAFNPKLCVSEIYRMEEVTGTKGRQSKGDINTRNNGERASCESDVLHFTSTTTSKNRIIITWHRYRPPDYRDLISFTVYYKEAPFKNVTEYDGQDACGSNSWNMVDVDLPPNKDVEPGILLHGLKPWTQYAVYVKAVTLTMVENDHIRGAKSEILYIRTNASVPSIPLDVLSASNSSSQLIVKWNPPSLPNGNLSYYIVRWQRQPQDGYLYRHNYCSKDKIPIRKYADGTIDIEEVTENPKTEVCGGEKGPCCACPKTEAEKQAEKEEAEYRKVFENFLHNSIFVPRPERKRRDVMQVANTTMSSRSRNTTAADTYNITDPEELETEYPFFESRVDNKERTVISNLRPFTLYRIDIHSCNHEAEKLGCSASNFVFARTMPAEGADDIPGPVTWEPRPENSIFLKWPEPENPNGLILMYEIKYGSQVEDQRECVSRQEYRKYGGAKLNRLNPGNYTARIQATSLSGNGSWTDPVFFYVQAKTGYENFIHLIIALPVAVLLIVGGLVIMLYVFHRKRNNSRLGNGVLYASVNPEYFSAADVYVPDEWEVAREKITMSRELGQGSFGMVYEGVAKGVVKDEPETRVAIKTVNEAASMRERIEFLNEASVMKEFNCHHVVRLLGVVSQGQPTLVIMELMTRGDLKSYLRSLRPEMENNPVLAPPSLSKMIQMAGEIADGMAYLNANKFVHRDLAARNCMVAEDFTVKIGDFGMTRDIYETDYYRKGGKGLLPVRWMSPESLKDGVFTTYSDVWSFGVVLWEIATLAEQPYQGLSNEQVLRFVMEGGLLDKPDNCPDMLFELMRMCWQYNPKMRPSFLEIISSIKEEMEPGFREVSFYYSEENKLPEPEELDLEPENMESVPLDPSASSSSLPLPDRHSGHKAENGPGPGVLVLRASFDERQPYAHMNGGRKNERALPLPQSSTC

Cc1ccc(F)c(NC(=O)Nc2ccc(-c3cccc4[nH]nc(N)c34)cc2)c1 [AL-39324, N-[4-[3-amino-1H-indazol-4-yl)phenyl]-N′-(2-fluoro-5-methylphenyl)urea]
IC50 (IGFR): > 50 µM
IC50 (INSR): > 50 µM
IC50 (LYN): > 20 µM
IC50 (FYN): > 50 µM
CNV versus vehicle injected eyes ([1]; 0.3%, 5 ul intravitreal): marginal statistical difference
mean±s.d. CNV area/burn per mouse ([1]; 0.3%, 5 ul intravitreal): 44283±28886 um^2
median CNV area/burn per mouse ([1]; 0.3%, 5 ul intravitreal): 38891 um^2
mean±s.d. CNV area/burn per mouse ([1]; 1%, 5 ul intravitreal): 21036±3100 um^2
median CNV area/burn per mouse ([1]; 1%, 5 ul intravitreal): 21122 um^2
inhibition of CNV as compared to vehicle-injected eyes ([1]; 1%): 84.1%
mean±s.d. CNV area/burn per mouse ([1]; 3%, 5 ul intravitreal): 27288±12109 um^2
median CNV area/burn per mouse ([1]; 3%, 5 ul intravitreal): 22665 um^2
inhibition of CNV as compared to vehicle-injected eyes ([1]; 3%): 83.0%
Mean CNV ([2]; 1% (2 μl)): 31000 µm²
Median CNV ([2]; 1% (2 μl)): 28300 µm²
Mean CNV ([2]; 1% (5 μl)): 39200 µm²
Median CNV ([2]; 1% (5 μl)): 36400 µm²
inhibition of CNV as compared to vehicle-injected eyes at day 14 post-laser ([2]; 2 μl 1%): 55.9%
reduction of median CNV area compared to CNV present at 7 days post-laser ([2]; 2 μl 1%): 45.4%
Mean CNV ([2]; 3% (5 μl)): 35200 µm²
Median CNV ([2]; 3% (5 μl)): 30600 µm²
inhibition of CNV as compared to vehicle-injected eyes at day 14 post-laser ([2]; 3%): 52.3%
inhibition of CNV as compared to vehicle-injected eyes at day 14 post-laser ([2]; 5 μl 1%): 43.7%
reduction of median CNV area compared to CNV present at 7 days post-laser ([2]; 5 μl 1%): 29.7%
reduction of median CNV area compared to CNV present at 7 days post-laser ([2]; 5 μl 3%): 41.0%
regression of existing CNV ([3]; 3 mg/kg/day oral from day 7 post-laser): did not show a significant regression of existing CNV
Mean CNV ([3]; 3 mg/kg/day oral): 35442 μm^2
Median CNV ([3]; 3 mg/kg/day oral): 33967 μm^2
regression of existing CNV as compared to nontreated controls ([3]; 10 mg/kg/day oral from day 7 post-laser): 41.8%
Mean CNV ([3]; 10 mg/kg/day oral): 29773 μm^2
Median CNV ([3]; 10 mg/kg/day oral): 27389 μm^2
regression of existing CNV as compared to nontreated controls ([3]; 20 mg/kg/day oral from day 7 post-laser): 68.0%
Mean CNV ([3]; 20 mg/kg/day oral): 15706 μm^2
Median CNV ([3]; 20 mg/kg/day oral): 15036 μm^2

— patent US20060189608A1, “Methods for treating ocular angiogenesis, retinal edema, retinal ischemia, and diabetic retinopathy using selective RTK inhibitors” (Alcon, Inc., priority 2005, published 2006)
